Test [1] relates to MPTP-induced mouse. The experiment in a line: Concentration of dopamine in striatum of MPTP-induced mouse (HPLC). The test is classed as in vivo, C57BL/6 mice. Conditions: 1 mg/kg oral once a day, FIG. 4. The protocol: 7 days after the compounds described above are respectively administered to the three groups, the mice in each group were sacrificed by cervical dislocation and brain tissues were immediately taken out of the mice. Striatum was collected from the brain tissue, 0.5 ml of a HPLC assay diluent (0.1 M HClO4, 0.1 mM EDTA) was added to the striatum, and a tissue homogenate was then prepared using an ultrasonic processor. The homogenate was centrifuged at 12,000 rpm for 15 minutes, and the supernatant was filtered with a nitrocellulose filter (0.2 um, Millipore). For HPLC analysis, HR-80 column (80 mm×4.6 mm, particle size: 3 μm ESA, USA) was used, the flow rate of a mobile phase (0.07 M monobasic sodium phosphate, 1 mM sodium octasulfonic acid, 0.1 uM EDTA, 5% acetonitrile, pH 3.2) was maintained at 0.7 ml/min, and the electrode potential of an electrochemical detector (Coulochem III, ESA, USA) was at E1=−100 mV, E2=350 mV.

Test [2] relates to 6-OHDA-induced rat. The experiment in a line: Decrease in neurons of substantia nigra pars compacta in 6-OHDA-induced rat (TH immunohistochemistry and cresyl violet staining). The test is classed as in vivo, Wistar rats. As to conditions: FIG. 6. The protocol: Wistar rats provided by ORIENT BIO INC. (excipient and CBI n=7, rasagiline n=6; 6-week-old; 20 male rats) were used as an experimental model. One-side injection of 3 μl of a solution containing 20 μg/μl of 6-OHDA was performed on the striatum of each rat (position: front—1.0 mm, rear—3.0 mm, postabdomen side—5.0 mm), thereby inducing the degeneration of neurons in the striatum. […] 4, 5 and 6 weeks after the last day of administration, an apomorphine-induced rotation test was performed on each group. The apomorphine-induced rotation test was performed in such a manner that 0.5 mg/kg of apomorphine was administered to each group of rats via intraperitoneal injection, each group of rats was placed in a rotor chamber, and the rotary movement thereof was recorded for 45 minutes, and thus the number of rotation per minute of each group of rats was measured to determine the average value thereof. In addition, after the apomorphine-induced rotation test performed 6 weeks after the last day of administration, each group of rats was sacrificed, and thus the extent of a decrease in neurons of substantia nigra pars compacta was confirmed using immunohistochemistry staining using an antibody against tyrosine hydroxylase and cresyl violet staining.

Test [3] has as its system dopamine transporter. The experiment in a line: Dopamine transporter binding assay ([125I]PE2I) on striatum sections of MPTP-induced monkey. It counts as in vivo, Macaque monkeys. Conditions: FIG. 2.
In test [4] the test system is SOD. The experiment in a line: Activity of SOD in striatum and substantia nigra of mouse. The test is classed as in vivo, C57BL/6 mice. As to conditions: 1 mg/kg oral for 8 days, no neurotoxin; FIG. 22.
Procedure: Next day after the last day of administration, striatum and substantia nigra tissues were taken out of each group of mice. Cell extracts were obtained from the cells of the tissues, and thus the activities of the catalase, SOD and GPx were measured.
Test [5] has as its system catalase, superoxide dismutase (SOD) and glutathione peroxidase (GPx). The experiment in a line: Activities of antioxidative enzymes in MPP+-treated cells. The test is classed as cell-based, human. As to conditions: 2 mM MPP+, 24 hours; FIG. 21. The protocol: In this embodiment, MAO-B-deficient human neuroblastoma SH-SY5Y cells (Korean Cell Line Bank) were used. The SH-SY5Y cells were distributed into a 6-well plate at a concentration of 1.8×10^5 cells/well, and then incubated with 5% of CO2 at 37° C. for 24 hours. The resulting cells were divided into three groups, 2 mM of MPP^+ was added to each group, two of the three groups were respectively treated 0.1, and the resultant was further incubated with 5% of CO2 at 37° C. for 24 hours. The control group which was not treated with MPP^+ was incubated under the same conditions as described above. Subsequently, cell extracts were obtained from the cells, and thus the activities of antioxidative enzymes, i.e., catalase, superoxide dismutase (SOD) and glutathione peroxidase (GPx) were measured.

The subject of test [6] is MAO-B-deficient human neuroblastoma SH-SY5Y cells. The experiment in a line: Reactive oxygen species (DCF-DA staining) in MPP+-treated cells. The test is classed as cell-based. As to conditions: 2 mM MPP+, 50 nM, 24 hours; FIGS. 19 and 20. As for the experimental part: In this embodiment, MAO-B-deficient human neuroblastoma SH-SY5Y cells (Korean Cell Line Bank) were used. The cells were cultured in a DMEM medium at 37° C. with 5% of CO2 for 24 hours. The cultured cells were divided into three groups, 2 mM of MPP^+ was added to each group, one of the three groups was treated with 50 nM of CBI, one of the other two groups was treated with 50 nM of rasagiline, and the three groups were further incubated with 5% of CO2 at 37° C. for 24 hours. The group with only MPP^+ added thereto was incubated under the same conditions as described above. Subsequently, the cells were stained with 2,7-dichlorofluorescein diacetate (DCF-DA), which is a fluorescence dye capable of detecting reactive oxygen species, and then observed using a confocal microscope (Nikon Co., Japan).

Test [7] has as its system MPTP-induced mouse. The experiment in a line: Number of neurites and spines per neuron in MPTP-induced mouse (confocal microscopy). As to conditions: 1 mg/kg oral once a day for 10 days after MPTP. It counts as in vivo, C57BL/6 mice. As for the experimental part:
To observe whether or not the number of neurites and spines per neuron in the tissues was increased, a coronal slice with a thickness of 200 um containing striatum or substantia nigra was prepared using a vibratome. Each group of mice was sacrificed, and the brain was taken out of each group and then placed in a cold, highly-concentrated sucrose dissection buffer bubbled with carbogen (5% CO2 and 95% O2) (87 mM NaCl, 2.5 mM KCl, 1.25 mM NaH2PO4, 25 mM NaHCO3, 1 mM CaCl2, 3 mM MgCl2, 10 mM dextrose, and 75 mM sucrose). While the vibratome was performed, a slicing chamber was filled with the uniformly carbogenated sucrose dissection buffer. After the slicing process was terminated, all the slices were washed with PBS, and fixed with 4% paraformaldehyde in a PBS solution. The fixed brain slices were placed on a 1.5% agarose (in PBS) block. Images thereof were obtained using a confocal microscope (ZEISS LSM 510 META) by using Zeiss LSM image browser software (Carl Zeiss Microimaging, Germany, version 4.0 SP2).

Molecules are shown by their SMILES.

For `NC(=O)OCc1cc(-c2ccc(OCc3ccccc3)cc2)no1` [CBI, carbamic acid 3-(4-benzyloxy-phenyl)-isoxazole-5-yl methylester], in test [1], the “restoration of the concentration of dopamine in striatum compared with normal mice” value is “about 70%”. In test [2] (1 mg/kg oral each), the “effect on decrease in neurons compared with rasagiline group” value is recorded as “superior effect”. For the same molecule, the “extent of a decrease in neurons of substantia nigra pars compacta” value in test [2] (1 mg/kg oral, 1 hour before 6-OHDA and once every other day for 6 weeks) is given as “significantly decreased extent of a decrease in neurons”. For the same molecule, in test [3] (1 mg/kg oral for 4 weeks after MPTP), the “dopamine transporters in medial striatum and caudal striatum” value was “a large number of dopamine transporters”. In addition, in test [3] (same amount (1 mg/kg) of rasagiline), the “amount of dopamine transporters compared with rasagiline group” value is reported as “significantly larger amount of dopamine transporters”. Besides, the “activity of the SOD” value in test [4] was “no significant change”. Moreover, the “activity of the antioxidative enzymes decreased by MPP+” value in test [5] is “an increase in a decreased activity of the antioxidative enzymes”. For the same molecule, in test [6], the reactive oxygen species entry was “significantly decreased”. In addition, the number of neurites entry in test [7] (FIG. 23) is “increased”. The number of spines result in test [7] (FIG. 24) is given as “recovered to the level of normal cells”.

Source of the values: patent publication US9290464B2 (priority 2010, dated 2016).
